Test [1] concerns HCT116 homozygous MTAP knockout cells. Kind of test: Proliferation assay (CellTiter-Glo, 10 days) in HCT116 homozygous MTAP knockout cells. To be noted: CellTiter-Glo after 10 days of treatment, read-out: Proliferation IC50 (nM) HCT116 MTAP_KO. Format: cell-based. The essentials: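 MTAP-null HCT116 clone made by CRISPR/Cas9 knockout of both alleles, tested beside parental cells. Cells dosed the day after seeding, split 1:10 on day 6 into fresh medium with the same compound level, and read on day 11 by CellTiter-Glo. IC50 taken after 10 days of exposure.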
A general note: In ATP-based viability assays light output follows the ATP content of the culture.

A further test has as its target T1, PRMT5/MEP50 complex (Homo sapiens, UniProt O14744).
T1 construct: purchased Reaction Biology Corporation
Kind of test: PRMT5:MEP50 HotSpot Assay (full-length histone H2A substrate, plus and minus MTA). Format: biochemical. To be noted: IC50 + 2 μM MTA, in the presence of 2 μM MTA. In short, it runs like this: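 Radiometric HotSpot format using recombinant full-length histone H2A as substrate, run with and without MTA. Reactions were stopped and spotted onto filter paper. Tritiated H2A was quantified by scintillation counting.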

T1 sequence (O14744 2-637 limits assumed): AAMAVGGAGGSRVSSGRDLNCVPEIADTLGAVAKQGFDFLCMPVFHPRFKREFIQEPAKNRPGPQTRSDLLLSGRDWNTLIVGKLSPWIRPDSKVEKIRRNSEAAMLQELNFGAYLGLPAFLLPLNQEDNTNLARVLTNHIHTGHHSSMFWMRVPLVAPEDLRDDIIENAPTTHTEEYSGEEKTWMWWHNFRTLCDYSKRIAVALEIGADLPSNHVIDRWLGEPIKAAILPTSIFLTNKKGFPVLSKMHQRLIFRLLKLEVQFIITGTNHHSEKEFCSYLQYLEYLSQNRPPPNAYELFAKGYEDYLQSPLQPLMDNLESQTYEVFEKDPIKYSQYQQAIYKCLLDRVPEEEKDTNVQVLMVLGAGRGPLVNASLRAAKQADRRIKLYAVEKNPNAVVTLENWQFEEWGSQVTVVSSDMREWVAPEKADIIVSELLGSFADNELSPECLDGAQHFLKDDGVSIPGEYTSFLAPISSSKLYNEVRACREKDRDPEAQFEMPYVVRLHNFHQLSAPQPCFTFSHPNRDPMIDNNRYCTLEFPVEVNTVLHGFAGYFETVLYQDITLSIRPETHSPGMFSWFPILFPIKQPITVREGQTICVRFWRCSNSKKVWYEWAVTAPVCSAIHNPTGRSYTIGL
T1 sequence (Q9BQA1 2-342 partner limits assumed): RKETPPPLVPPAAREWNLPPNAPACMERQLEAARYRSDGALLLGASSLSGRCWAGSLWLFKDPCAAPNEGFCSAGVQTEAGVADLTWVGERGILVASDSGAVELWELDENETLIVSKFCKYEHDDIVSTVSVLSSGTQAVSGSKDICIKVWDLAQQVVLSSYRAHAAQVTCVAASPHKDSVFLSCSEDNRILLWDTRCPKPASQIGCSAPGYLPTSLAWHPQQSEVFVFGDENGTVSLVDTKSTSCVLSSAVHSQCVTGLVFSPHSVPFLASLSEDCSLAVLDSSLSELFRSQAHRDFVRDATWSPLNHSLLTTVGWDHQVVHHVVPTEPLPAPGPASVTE

For `Cc1cc(OC2CC2)c(C#N)c(-c2c(-c3ccc4c(=O)[nH]nc(CN)c4c3)cnn2C)c1F` (single isomer, unassigned) [Example 16-20, (M)-2-[4-[4-(aminomethyl)-1-oxo-2H-phthalazin-6-yl]-2-methyl-pyrazol-3-yl]-6-(cyclopropoxy)-3-fluoro-4-methyl-benzonitrile], the IC50 in test [1] stood at 13 nM; at PRMT5/MEP50 complex it was 36 nM.
On the same counts, the results for `Cn1ncc(-c2ccc3c(=O)[nH]nc(CN)c3c2)c1-c1c(C#N)c(OC2CC2)c2ccccc2c1Cl` (single isomer, unassigned) [Example 16-23, (P)-3-[4-[4-(aminomethyl)-1-oxo-2H-phthalazin-6-yl]-2-methyl-pyrazol-3-yl]-4-chloro-1-(cyclopropoxy)naphthalene-2-carbonitrile] are 538 nM and 485 nM.
For `Cn1ncc(-c2ccc3c(=O)[nH]nc(CN)c3c2)c1-c1c(C#N)c(OC2CC2)c2ccccc2c1Cl` (single isomer, unassigned) [Example 16-24, (M)-3-[4-[4-(aminomethyl)-1-oxo-2H-phthalazin-6-yl]-2-methyl-pyrazol-3-yl]-4-chloro-1-(cyclopropoxy)naphthalene-2-carbonitrile], in that order: 61 nM and 37.2 nM.
For `Cc1cc(OC2CC2)c(C#N)c(-c2c(-c3cc(Cl)c4c(=O)[nH]nc(CN)c4c3)cnn2C)c1F` (single isomer, unassigned) [Example 16-25, (P)-2-[4-[4-(aminomethyl)-8-chloro-1-oxo-2H-phthalazin-6-yl]-2-methyl-pyrazol-3-yl]-6-(cyclopropoxy)-3-fluoro-4-methyl-benzonitrile], the IC50 in test [1] was 664 nM; at PRMT5/MEP50 complex, 964 nM.
As to `Cc1cc(OC2CC2)c(C#N)c(-c2c(-c3cc(Cl)c4c(=O)[nH]nc(CN)c4c3)cnn2C)c1F` (single isomer, unassigned) [Example 16-26, (M)-2-[4-[4-(aminomethyl)-8-chloro-1-oxo-2H-phthalazin-6-yl]-2-methyl-pyrazol-3-yl]-6-(cyclopropoxy)-3-fluoro-4-methyl-benzonitrile], the IC50 is 17 nM in test [1] and 8.43 nM at PRMT5/MEP50 complex.
For `Cn1ncc(-c2cc(Cl)c3c(=O)[nH]nc(CN)c3c2)c1-c1c(F)c(Cl)cc(OC2CC2)c1C#N` (single isomer, unassigned) [Example 16-27, (P)-2-[4-[4-(aminomethyl)-8-chloro-1-oxo-2H-phthalazin-6-yl]-2-methyl-pyrazol-3-yl]-4-chloro-6-(cyclopropoxy)-3-fluoro-benzonitrile], in that order: 321 nM and 2230 nM.
In the case of `Cn1ncc(-c2cc(Cl)c3c(=O)[nH]nc(CN)c3c2)c1-c1c(F)c(Cl)cc(OC2CC2)c1C#N` (single isomer, unassigned) [Example 16-28, (M)-2-[4-[4-(aminomethyl)-8-chloro-1-oxo-2H-phthalazin-6-yl]-2-methyl-pyrazol-3-yl]-4-chloro-6-(cyclopropoxy)-3-fluoro-benzonitrile], the IC50 in test [1] was determined as 10 nM; at PRMT5/MEP50 complex it was 81 nM.
For `Cn1ncc(-c2ccc3c(=O)[nH]nc(CN)c3c2)c1-c1c(F)ccc(CC2CC2)c1C#N` (single isomer, unassigned) [Example 16-29, (P)-2-(4-(4-(aminomethyl)-1-oxo-1,2-dihydrophthalazin-6-yl)-1-methyl-1H-pyrazol-5-yl)-6-(cyclopropylmethyl)-3-fluorobenzonitrile], in that order: 292 nM and 111 nM.
`Cn1ncc(-c2ccc3c(=O)[nH]nc(CN)c3c2)c1-c1c(F)ccc(CC2CC2)c1C#N` (single isomer, unassigned) [Example 16-30, (M)-2-(4-(4-(aminomethyl)-1-oxo-1,2-dihydrophthalazin-6-yl)-1-methyl-1H-pyrazol-5-yl)-6-(cyclopropylmethyl)-3-fluorobenzonitrile]: the IC50 came to 17 nM in test [1] and 36.4 nM at PRMT5/MEP50 complex.
On to `Cn1ncc(-c2ccc3c(=O)[nH]nc(CN)c3c2)c1-c1c(F)cc2ncc(Cl)cc2c1C#N` (single isomer, unassigned) [Example 16-31, (M)-6-[4-[4-(aminomethyl)-1-oxo-2H-phthalazin-6-yl]-2-methyl-pyrazol-3-yl]-3-chloro-7-fluoro-quinoline-5-carbonitrile], for which the IC50 came out at 16 nM in test [1] and 19.3 nM on PRMT5/MEP50 complex.
For `Cn1ncc(-c2ccc3c(=O)[nH]nc(CN)c3c2)c1-c1c(F)cc2ncc(Cl)cc2c1C#N` (single isomer, unassigned) [Example 16-32, (P)-6-[4-[4-(aminomethyl)-1-oxo-2H-phthalazin-6-yl]-2-methyl-pyrazol-3-yl]-3-chloro-7-fluoro-quinoline-5-carbonitrile], in that order: 458 nM and 195 nM.
On to `Cn1ncc(-c2ccc3c(=O)[nH]nc(CN)c3c2)c1-c1c(F)c(Cl)c2c(c1C#N)OCCC2` (single isomer, unassigned) [Example 16-39, (P)-7-(4-(4-(aminomethyl)-1-oxo-1,2-dihydrophthalazin-6-yl)-1-methyl-1H-pyrazol-5-yl)-5-chloro-6-fluorochroman-8-carbonitrile], for which the results for the IC50 (in test [1]; at PRMT5/MEP50 complex) were 517 nM and 366 nM, respectively.
Take `Cn1ncc(-c2ccc3c(=O)[nH]nc(CN)c3c2)c1-c1c(F)c(Cl)c2c(c1C#N)OCCC2` (single isomer, unassigned) [Example 16-40, (M)-7-(4-(4-(aminomethyl)-1-oxo-1,2-dihydrophthalazin-6-yl)-1-methyl-1H-pyrazol-5-yl)-5-chloro-6-fluorochroman-8-carbonitrile]: the IC50 in test [1] turned out to be 12 nM; at PRMT5/MEP50 complex, 60.1 nM.
For `Cc1cc(-c2cnn(C)c2-c2c(F)cc3ncc(Cl)cc3c2C#N)cc2c(CN)n[nH]c(=O)c12` (single isomer, unassigned) [Example 16-49, (P)-6-[4-[4-(aminomethyl)-8-methyl-1-oxo-2H-phthalazin-6-yl]-2-methyl-pyrazol-3-yl]-3-chloro-7-fluoro-quinoline-5-carbonitrile], in that order: 80 nM and 166 nM.
Take `Cc1cc(-c2cnn(C)c2-c2c(F)cc3ncc(Cl)cc3c2C#N)cc2c(CN)n[nH]c(=O)c12` (single isomer, unassigned) [Example 16-50, (M)-6-[4-[4-(aminomethyl)-8-methyl-1-oxo-2H-phthalazin-6-yl]-2-methyl-pyrazol-3-yl]-3-chloro-7-fluoro-quinoline-5-carbonitrile]: the values for the IC50 (in test [1]; on PRMT5/MEP50 complex) were 9 nM and 36.4 nM, respectively.
On the same counts, the results for `Cn1ncc(-c2ccc3c(=O)[nH]nc(CN)c3c2)c1-c1c(C#N)cc2ccccc2c1F` (single isomer, unassigned) [Example 16-53, (P)-3-[4-[4-(aminomethyl)-1-oxo-2H-phthalazin-6-yl]-2-methyl-pyrazol-3-yl]-4-fluoro-naphthalene-2-carbonitrile] are 752 nM and 157 nM.
For `Cn1ncc(-c2ccc3c(=O)[nH]nc(CN)c3c2)c1-c1c(C#N)cc2ccccc2c1F` (single isomer, unassigned) [Example 16-54, (M)-3-[4-[4-(aminomethyl)-1-oxo-2H-phthalazin-6-yl]-2-methyl-pyrazol-3-yl]-4-fluoro-naphthalene-2-carbonitrile], in that order: 82 nM and 9.19 nM.

The values above are taken from US20240208912A1 (Mirati Therapeutics, Inc., priority 2021, published 2024).
